Results taken from patent US9617225B2 (VIROSTATICS SRL, priority 2012, dated 2017).
Where two headings read alike, the source gives them in different places.

How the values were obtained:
[1] = test system: laboratory strain of HIV-1; assay: Antiviral Activity Against HIV (AV), p24 in infected activated primary T cells; assay type: cell-based; conditions: for antiviral and antiproliferative activity and cytotoxicity profile: summary in words
Procedure: Antiviral Activity Against HIV (AV)
Activated primary T cells are infected with a laboratory strain of HIV-1, then cultured and exposed to different concentrations of the test compounds. HIV replication is analysed by measuring the viral protein p24 and expressed as percentage of untreated control. Inhibition of viral replication (AV) is then calculated (AV=100 minus the % p24 compared to control, AV of control=0%). Inhibitory concentration 50% for antiviral activity (AV50) is calculated.

Primary T cells [2] = assay: Antiproliferative Activity (AP), mitotic index by flow cytometry; assay type: cell-based; conditions: T-cell, read-out: AP50 (μM)
Procedure: Antiproliferative Activity (AP)
Primary T cells are cultured and exposed to different concentrations of the test compounds. Cell proliferation is analysed by measuring mitotic index (ie the number of cell divisions a population of cells undergoes) through flow cytometry based techniques. Mitotic index is expressed as percentage of untreated control. Inhibition of cell proliferation (AP) is then calculated (AP=100 minus % mitotic index compared to control, AP of control=0%). Inhibitory concentration 50% for antiproliferative capacity (AP50) is calculated.

[3] = target: human CDK9/CyclinT kinase complex (Homo sapiens (Human), UniProt P50750); assay: In Vitro CDK9/CyclinT Assay (IMAP fluorescent polarization); assay type: biochemical
human CDK9/CyclinT kinase complex, sequence (P50750 whole entry): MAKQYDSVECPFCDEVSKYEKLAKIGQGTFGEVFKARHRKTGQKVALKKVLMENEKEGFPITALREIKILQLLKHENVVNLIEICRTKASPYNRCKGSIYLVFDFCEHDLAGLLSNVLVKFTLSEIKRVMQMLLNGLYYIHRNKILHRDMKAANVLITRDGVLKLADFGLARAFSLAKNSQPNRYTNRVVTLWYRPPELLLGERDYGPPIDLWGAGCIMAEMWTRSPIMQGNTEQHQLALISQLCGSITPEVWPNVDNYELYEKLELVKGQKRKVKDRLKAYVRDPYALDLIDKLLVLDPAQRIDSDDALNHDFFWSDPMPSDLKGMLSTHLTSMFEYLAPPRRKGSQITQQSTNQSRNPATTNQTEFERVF
human CDK9/CyclinT kinase complex, sequence (O60563 whole entry partner): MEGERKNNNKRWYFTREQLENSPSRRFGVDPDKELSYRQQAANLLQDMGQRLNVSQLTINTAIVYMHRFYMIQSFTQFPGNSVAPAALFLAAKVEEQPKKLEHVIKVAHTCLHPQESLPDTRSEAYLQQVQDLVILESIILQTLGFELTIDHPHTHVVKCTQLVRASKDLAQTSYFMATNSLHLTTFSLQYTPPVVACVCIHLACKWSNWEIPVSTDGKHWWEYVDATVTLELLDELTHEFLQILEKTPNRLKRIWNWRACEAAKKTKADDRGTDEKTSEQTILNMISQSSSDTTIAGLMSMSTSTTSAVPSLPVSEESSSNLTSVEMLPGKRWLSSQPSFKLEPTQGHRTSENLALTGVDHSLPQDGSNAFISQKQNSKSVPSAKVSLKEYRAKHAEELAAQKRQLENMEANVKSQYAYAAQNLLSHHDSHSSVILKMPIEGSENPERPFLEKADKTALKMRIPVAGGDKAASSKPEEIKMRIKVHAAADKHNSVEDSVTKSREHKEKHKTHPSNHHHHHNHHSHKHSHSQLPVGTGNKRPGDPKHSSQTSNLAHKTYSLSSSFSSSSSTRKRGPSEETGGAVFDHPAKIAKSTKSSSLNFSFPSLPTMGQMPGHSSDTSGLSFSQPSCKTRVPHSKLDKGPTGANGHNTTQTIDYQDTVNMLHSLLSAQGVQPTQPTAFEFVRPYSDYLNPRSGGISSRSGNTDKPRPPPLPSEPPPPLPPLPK
Method in brief: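 Phosphorylation of 400 nM TAMRA-Rbtide (15-mer retinoblastoma-derived peptide) by 5 nM CDK9/CyclinT with 12 μM ATP (=Kmapp) in 20 mM MOPS pH 7, 1 mM DTT, 10 mM MgCl2, 0.01% Tween 20. Reaction run 1 hour at room temperature, stopped with IMAP beads; read by fluorescence polarization.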

Primary T cells [4] = assay: Cytotoxicity, viability by flow cytometry; assay type: cell-based
Procedure: Primary T cells are cultured and treated with different concentrations of the test compound. Viability is analysed by measuring through flow cytometry based techniques the percentage of viable cells, compared to untreated control=100%).

SMILES | IC50 ([1]; Human immunodeficiency virus 1, T-cell, read-out: AV50 (μM)) [µM] | IC50 (Primary T cells [2]) [µM] | IC50 ([3]; Table 1) [nM] | TD50 (Primary T cells [4]) [µM] | antiviral and antiproliferative activity and cytotoxicity profile [1] | IC50 [3] [nM]
CNCc1cc(Nc2cc(-c3ccccc3OC)ncn2)ccc1OC [Example 37, N-(4-Methoxy-3-((methylamino)methyl)phenyl)-6-(2-methoxyphenyl)pyrimidin-4-amine] | > 1.5 | 2 | < 100 | 2 |  | 
COc1cc(F)c(Nc2cc(-c3cc(F)ccc3OC)ncn2)cc1C(N)=O [Example 144, 4-Fluoro-5-[6-(5-fluoro-2-methoxy-phenyl)-pyrimidin-4-ylamino]-2-methoxy-benzamide] |  |  |  | 12 | good antiviral and antiproliferative activity and a good cytotoxicity profile | < 1000
CCOc1ccccc1-c1cc(Nc2cc(C(N)=O)c(OC)cc2F)ncn1 [Example 145, 5-[6-(2-Ethoxy-phenyl)-pyrimidin-4-ylamino]-4-fluoro-2-methoxy-benzamide] |  |  |  | 15 | good antiviral and antiproliferative activity and a good cytotoxicity profile | < 1000
COc1cc(F)c(Nc2cc(-c3ccc(F)cc3OC)ncn2)cc1C(N)=O [Example 146, 4-Fluoro-5-[6-(4-fluoro-2-methoxy-phenyl)-pyrimidin-4-ylamino]-2-methoxy-benzamide] |  |  | < 1000 | 10 | good antiviral and antiproliferative activity and a good cytotoxicity profile | 
CCOc1cc(F)ccc1-c1cc(Nc2cc(C(N)=O)c(OC)cc2F)ncn1 [Example 147, 5-[6-(2-Ethoxy-4-fluoro-phenyl)-pyrimidin-4-ylamino]-4-fluoro-2-methoxy-benzamide] |  |  |  | 15 | good antiviral and antiproliferative activity and a good cytotoxicity profile | < 1000
